Consider 21 molecules from PubChem BioAssay (NCI).

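Step 1: Grow cells in 96-well plates. Step 2: Expose to compound for 48 hours at 5 concentrations. Step 3: Interpolate endpoints linearly; if unreached, use highest concentration. GI50 is the concentration that inhibits growth by half. Definition used: TGI = concentration required for complete inhibition of growth.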 A value given as a limit tells only on which side of the number the result lay.

In general, TGI refers to the concentration giving total growth inhibition. A high value points to lower sensitivity of the cells. By GI50 is commonly meant the concentration that inhibits growth by half.

Some test systems named below: NCI-H226 lung; A498 renal; MOLT-4 leukemia; M14 melanoma; K-562 leukemia; HCT-116 colon; SK-MEL-28 melanoma; HL-60(TB) leukemia; SW-620 colon.
Common to all, as to experiment: DTP human tumour cell line panel, 48 h

Consider `COC(=O)[C@]1(C)C(OC)=CC(=O)C2C1[C@H]1CCC[C@@H]21` (stereo partly drawn), for which the TGI in the experiment with NCI-H226 lung, with A498 renal, in the experiment on MOLT-4 leukemia, in the experiment with M14 melanoma, in the experiment on K-562 leukemia and with HCT-116 colon was more than 100 µM throughout. Besides, the TGI in the experiment with SK-MEL-28 melanoma and with HL-60(TB) leukemia was more than 100 µM each time.

`COc1ccccc1NC(=O)C1=C(C)NC(C)=C(C(=O)Nc2ccccc2OC)C1c1ccc(N(C)C)cc1`: the TGI was 51.3 µM in the experiment with NCI-H226 lung; more than 100 µM with A498 renal; 64.5 µM in the experiment with MOLT-4 leukemia; 69.7 µM in the experiment with M14 melanoma; 54.3 µM with K-562 leukemia; 74.7 µM with HCT-116 colon. For the same molecule, the values for the TGI with SW-620 colon, in the experiment with SK-MEL-28 melanoma and in the experiment on HL-60(TB) leukemia were more than 100 µM, 58 µM and 40.7 µM, respectively.

Turning to `COc1cc(/C=C/c2ccc(OC)c(OC)c2OC)cc(OC)c1OC`, the TGI in the experiment with NCI-H226 lung is 39.7 µM; with A498 renal it was more than 73.9 µM; in the experiment with MOLT-4 leukemia it was more than 62 µM; with M14 melanoma, 77 µM; with K-562 leukemia, more than 69.3 µM; with HCT-116 colon it was 27.9 µM. The figures for the TGI in the experiment with SW-620 colon, with SK-MEL-28 melanoma and in the experiment on HL-60(TB) leukemia were more than 92.6 µM, 37.7 µM and more than 68 µM, respectively.

With `COC(=O)C(CC(=O)c1c[nH]c2ccccc12)c1c[nH]c2ccccc12` (stereo not drawn), the TGI came to 54.3 µM in the experiment with NCI-H226 lung; 40 µM in the experiment on A498 renal; 46.7 µM with MOLT-4 leukemia; 41.9 µM in the experiment on M14 melanoma; 66.7 µM with K-562 leukemia; 31.6 µM in the experiment on HCT-116 colon. Moreover, the TGI in the experiment on SW-620 colon turned out to be 57.2 µM; in the experiment with SK-MEL-28 melanoma, 42.1 µM; in the experiment on HL-60(TB) leukemia, 49.4 µM.

Consider `CS(=O)(=O)NNS(=O)(=O)c1ccc(Cl)cc1`, for which the TGI with NCI-H226 lung was 96.3 µM; in the experiment with A498 renal, more than 100 µM; with MOLT-4 leukemia, more than 100 µM; with M14 melanoma, more than 100 µM; with K-562 leukemia, more than 100 µM; with HCT-116 colon, more than 100 µM. The TGI with SW-620 colon and with HL-60(TB) leukemia was more than 100 µM in each case.

As for `CCOC(=O)c1c(-c2ccccc2)c(C(OC(c2ccccc2)c2c(-c3ccccc3)c(C(=O)OCC)n3ccccc23)c2ccccc2)c2ccccn12` (stereo not drawn), the TGI in the experiment with NCI-H226 lung, with MOLT-4 leukemia, in the experiment on M14 melanoma, in the experiment on K-562 leukemia, in the experiment on HCT-116 colon and in the experiment with SW-620 colon was more than 100 µM each time. Moreover, the TGI with SK-MEL-28 melanoma and in the experiment on HL-60(TB) leukemia was more than 100 µM in each case.

For `ClCc1ccc(C2OCCO2)cc1`, the TGI in the experiment with NCI-H226 lung is 40.1 µM; with A498 renal it was 45.3 µM; in the experiment with MOLT-4 leukemia, 45.6 µM; with M14 melanoma it was 34.3 µM; in the experiment on K-562 leukemia, more than 31.6 µM; with HCT-116 colon, more than 52.1 µM. The TGI with SW-620 colon is 34.4 µM; in the experiment with SK-MEL-28 melanoma, more than 58.6 µM; in the experiment with HL-60(TB) leukemia, 12.5 µM.

Regarding `COC(=O)c1ccc(C(=O)OC)c2nc3cc(C)ccc3nc12`, the TGI in the experiment on NCI-H226 lung, in the experiment with A498 renal, in the experiment on MOLT-4 leukemia, in the experiment on M14 melanoma, in the experiment with K-562 leukemia and in the experiment on SW-620 colon was more than 100 µM in each case. Also, the TGI in the experiment with SK-MEL-28 melanoma and in the experiment on HL-60(TB) leukemia was more than 100 µM in each case.

For the molecule `Cc1cccc(N=C2NC(=O)C(CC(=O)Nc3ccc(C)cc3C)S2)c1` (stereo not drawn), the TGI in the experiment on NCI-H226 lung, with A498 renal, in the experiment on MOLT-4 leukemia, in the experiment with M14 melanoma, with K-562 leukemia and with HCT-116 colon was more than 100 µM each time. Besides, the TGI with SW-620 colon, in the experiment on SK-MEL-28 melanoma and with HL-60(TB) leukemia was more than 100 µM throughout.

`CC(/C=C/NNC1=NC(c2ccccc2)C(c2ccccc2)=NN1)Sc1ccccc1N` (stereo not drawn): the TGI in the experiment with NCI-H226 lung is 24.3 µM; in the experiment on A498 renal it was 26.6 µM; with MOLT-4 leukemia it was 34 µM; with M14 melanoma, 10.6 µM; with K-562 leukemia it was more than 100 µM; with HCT-116 colon it was 21.8 µM. The TGI stood at 7.75 µM with SW-620 colon, 21.3 µM in the experiment on SK-MEL-28 melanoma and 6.45 µM in the experiment on HL-60(TB) leukemia.

On to `COc1c(Sc2ccccc2)cc(Sc2ccccc2)c2cccnc12`, for which the TGI was 82.3 µM in the experiment with A498 renal; 48.1 µM with MOLT-4 leukemia; more than 100 µM in the experiment with M14 melanoma; more than 100 µM with K-562 leukemia; more than 100 µM in the experiment on HCT-116 colon; more than 100 µM in the experiment on SW-620 colon. The molecule further yielded a TGI in the experiment on SK-MEL-28 melanoma of more than 100 µM.

`CCOC(=O)c1c2c(n(Cc3ccccc3)c1C)-c1nc(Cc3ccccc3)[nH]c1C(=O)C2=O`: the GI50 is 1.67 µM with NCI-H226 lung; 1.74 µM with A498 renal; 2.13 µM with MOLT-4 leukemia; 1.75 µM in the experiment with M14 melanoma; 1.85 µM in the experiment with K-562 leukemia; 1.49 µM with HCT-116 colon. Further, the GI50 with SW-620 colon is 1.84 µM; in the experiment with SK-MEL-28 melanoma, 2 µM. In addition, the TGI with NCI-H226 lung was determined as 4.39 µM; in the experiment on A498 renal, 3.17 µM; in the experiment on MOLT-4 leukemia, 5.41 µM; with M14 melanoma it was 3.49 µM; with K-562 leukemia, 4.05 µM; in the experiment on HCT-116 colon, 2.9 µM. For the same molecule, the TGI in the experiment with SW-620 colon amounted to 3.28 µM; in the experiment on SK-MEL-28 melanoma it was 3.42 µM.

`COc1ccc2ccccc2c1CN1CCOCCOCCN(Cc2c(OC)ccc3ccccc23)CCOCCOCC1`: the TGI is more than 100 µM with NCI-H226 lung; more than 100 µM with A498 renal; more than 90.1 µM in the experiment on MOLT-4 leukemia; 32.5 µM in the experiment on M14 melanoma; more than 100 µM in the experiment with K-562 leukemia; more than 59 µM in the experiment on HCT-116 colon. For the same molecule, the concentration for total growth inhibition (TGI) in the experiment with SW-620 colon is more than 94.7 µM; in the experiment with SK-MEL-28 melanoma it was more than 65 µM; in the experiment on HL-60(TB) leukemia, 53.4 µM.

`CC[C@H](Nc1nc(N)nc(C2CC2)c1C#N)c1nc2cccc(NCc3ccc(C(=O)NO)cc3)c2c(=O)n1-c1ccccc1`: the GI50 was 1.47 µM with NCI-H226 lung; 1.7 µM with A498 renal; 2.2 µM in the experiment with MOLT-4 leukemia; 2.02 µM with M14 melanoma; 2.81 µM with K-562 leukemia; 1.25 µM in the experiment on HCT-116 colon. For the same molecule, the GI50 is 1.73 µM with SW-620 colon, 2.67 µM in the experiment with SK-MEL-28 melanoma and 2.35 µM in the experiment on HL-60(TB) leukemia. Besides, the concentration for total growth inhibition (TGI) is 4.18 µM with NCI-H226 lung; 3.69 µM in the experiment with A498 renal; 10.9 µM with MOLT-4 leukemia; 4.66 µM in the experiment with M14 melanoma; more than 100 µM in the experiment with K-562 leukemia; 2.71 µM in the experiment with HCT-116 colon. Besides, the TGI in the experiment with SW-620 colon amounted to 4.81 µM; in the experiment on SK-MEL-28 melanoma, 7.44 µM; in the experiment on HL-60(TB) leukemia, 5.65 µM.

On to `Nc1ccc(C(=O)CC2(O)C(=O)Nc3c(Cl)cc(Cl)cc32)cc1` (stereo not drawn), for which the TGI in the experiment on NCI-H226 lung, in the experiment with A498 renal, in the experiment with MOLT-4 leukemia, in the experiment on M14 melanoma, with K-562 leukemia and with HCT-116 colon was more than 100 µM throughout. Also, the TGI with SW-620 colon was 65.4 µM; with SK-MEL-28 melanoma, more than 100 µM; in the experiment with HL-60(TB) leukemia, 78.5 µM.

As to `Cc1c(C(=O)CC(=O)C(=O)Nc2cc(Cl)ccc2Cl)[n+](=O)c2ccccc2n1[O-]`, the TGI is more than 100 µM in the experiment with NCI-H226 lung; more than 100 µM in the experiment on A498 renal; 66.5 µM with MOLT-4 leukemia; 64.4 µM in the experiment on M14 melanoma; more than 100 µM in the experiment on K-562 leukemia; more than 100 µM in the experiment with HCT-116 colon. Moreover, the TGI in the experiment with SW-620 colon and in the experiment with SK-MEL-28 melanoma was more than 100 µM throughout.

In the case of `CC1=NOC(=O)C1N=Nc1ccc(Br)c(C)c1` (stereo not drawn), the TGI in the experiment with NCI-H226 lung worked out at 53.4 µM; in the experiment on A498 renal, 36.2 µM; in the experiment on MOLT-4 leukemia, 45.3 µM; in the experiment with M14 melanoma it was 36.1 µM; in the experiment on K-562 leukemia, 30.5 µM; with HCT-116 colon, 33.9 µM. Also, the TGI turned out to be 34.7 µM with SW-620 colon, 48.7 µM in the experiment with SK-MEL-28 melanoma and 23.8 µM with HL-60(TB) leukemia.

`O=c1cc(-c2ccccn2)[nH]c2cc(F)ccc12`: the TGI in the experiment on NCI-H226 lung, with MOLT-4 leukemia, in the experiment on M14 melanoma, in the experiment with K-562 leukemia, with HCT-116 colon and with SW-620 colon was more than 100 µM in each case. Moreover, the TGI in the experiment on SK-MEL-28 melanoma and in the experiment on HL-60(TB) leukemia was more than 100 µM each time.

On to `O=C(CSc1nc(-c2ccccc2)c(-c2ccccc2)[nH]1)NNC(=S)Nc1ccccc1`, for which the TGI with NCI-H226 lung, in the experiment on A498 renal, with MOLT-4 leukemia, in the experiment with M14 melanoma, with HCT-116 colon and in the experiment on SW-620 colon was more than 100 µM throughout. Besides, the TGI with SK-MEL-28 melanoma and in the experiment on HL-60(TB) leukemia was more than 100 µM throughout.

Regarding `CCCCCCCCCCCCCC(=O)NCC(OCC)OCC`, the TGI in the experiment with NCI-H226 lung, in the experiment with A498 renal, in the experiment on M14 melanoma, in the experiment on HCT-116 colon, in the experiment with SW-620 colon and with SK-MEL-28 melanoma was more than 100 µM in each case. Besides, the TGI in the experiment with HL-60(TB) leukemia was more than 100 µM.

Regarding `Cc1c(Cl)cccc1NC(=O)/C(Cl)=C(\Cl)C(=O)O`, the TGI was 51.3 µM with NCI-H226 lung; more than 100 µM with A498 renal; 48.2 µM in the experiment on MOLT-4 leukemia; 30.9 µM in the experiment on M14 melanoma; more than 100 µM with K-562 leukemia; 27.4 µM in the experiment with HCT-116 colon. Further, the TGI in the experiment on SW-620 colon is 39.9 µM; in the experiment with SK-MEL-28 melanoma, 35.4 µM.
